This note sets out measurements from US9988371B2, “Benzimidazole analogues and related methods” (The Arizona Board of Regents, on Behalf of the University …, priority 2014, dated 2018).

Experiment [1] deals with pMAPK. The experiment can be described thus: pMAPK immunoblot in TT cells. The class given is cell-based, human. The note with it: 1 nM. Here is the method:
FIG. 3: Photographs of blots showing inhibition of RET protein endogenously expressed in TT cells (human MTC cell line expressing RET/C634W) by indicated concentrations of Pz-1 or vehicle (NT: not treated) and reduced effects in thyroid non-transformed Nthy-ori-3-1 cells. Serum-starved human TT and thyroid non-transformed Nthy-ori-3-1 cell lines were treated for 2 hr with indicated concentrations of Pz-1. 50 μg of total cell lysates were subjected to immunoblotting with anti-phospho-Y1062 (αp1062) and anti-phospho-905 (αpY905) RET antibodies, anti-phospho-MAPK (αpMAPK, T302/Y304), and anti-phospho-SHC (αpSHC, Y317) antibodies. The blots were normalized using anti-RET (αRET) and anti-SHC (αSHC).
The inhibition of RET auto-phosphorylation by Pz-1 was measured in several different cell lines including NIH3T3 fibroblasts expressing RET/C634Y or RET/M918T, TT expressing RET/C634W (MTC), Nthy-ory-3-1 (thyroid, non-transformed with RET; negative control), HEK293/RET/PTC1 (CCDC6-RET that can be found in PTC & lung cancer), HEK293/RET-KIF5B (that can be found in lung cancer), HEK293/RET/PTC3 (NCOA4-RET, that can be found in PTC & lung cancer), and HEK293 transfected with RET/C634R-V804M (FIGS. 1-3). […]
Protein lysates were prepared according to standard procedures. […] Immune complexes were detected with the enhanced chemiluminescence kit (Amersham Pharmacia Biotech, Little Chalfort, UK). […]

The test system of experiment [2] is RET/C634Y transformed NIH3T3 fibroblasts. The experiment in a line: NIH3T3 RET/C634Y tumors in nude mice. The class given is in vivo, BALB/c nu/nu mice. The note with it: 1.0, 3.0 or 10 mg/kg daily, oral gavage. An excerpt: FIG. 8: Anti-tumorigenic activity of Pz-1 in nude mice implanted with RET/C634Y or HRAS(G12V) transformed NIH3T3 fibroblasts. […] Average tumor volume (±SD: standard deviations) is reported. NIH3T3 RET/C634Y (200,000 cells) or NIH3T3 HRAS/G12V (50,000 cells) were inoculated subcutaneously into dorsal portion (both sides) of 6-week-old female BALB/c nu/nu mice (n. 31 mice/cell line) (Jackson Laboratories, Bar Harbor, Me.). After 4 days, before tumors had appeared, animals were randomly assigned to receive Pz-1 (1.0, 3.0 or 10 mg/kg daily) (23 mice/cell line: 8 mice/group for 1.0 and 3.0 mg/kg daily doses and 7 mice for 10 dose mg/kg daily) or vehicle control (8 mice) by oral gavage. Tumor diameters were measured with calipers every 1-2 days. Tumor volumes (V) were calculated by the rotational ellipsoid formula and reported as average volumes±standard deviations. […]
TT cells (7.5×10^6/mouse) were inoculated subcutaneously into dorsal portions (both sides) of 39 SCID mice (Jackson Laboratories, Bar Harbor, Me.). […] Tumor diameters were measured with callipers every week. Tumor volumes (V) were calculated by the rotational ellipsoid formula: V=A×B^2/2 (A=axial diameter; B=rotational diameter) and reported as average volumes±standard deviations. […] Anti-tumorigenic activity of Pz-1 was also assessed in nude mice implanted with RET/C634Y or HRAS(G12V) transformed NIH3T3 fibroblasts. […]

Turning to `Cn1cc(-c2ccc3c(c2)ncn3-c2ccc(CC(=O)Nc3cc(C(C)(C)C)on3)cc2)cn1` [Pz-1, N-(5-(tert-butyl)isoxazol-3-yl)-2-(4-(5-(1-methyl-1H-pyrazol-4-yl)-1H-benzo[d]imidazol-1-yl)phenyl)acetamide], the “inhibition of pMAPK” value in experiment [1] is given as “strongly inhibited”. In addition, in experiment [2], the “formation of tumors induced by RET cells” value was “totally prevented formation of tumors”.
